In patent US20060099681A1, “Human and mouse alkaline ceramidase 1 and skin diseases” (U.S. DEPARTMENT OF VETERANS AFFAIRS, priority 2004, published 2006):
pIC50: −log10 of the molar value.

Target: T1, mouse alkaline ceramidase 1 (maCER1) (Mus musculus, UniProt Q8R4X1)
T1 construct: The ORF of the mouse alkaline ceramidase was amplified from the mouse liver cDNA library; made in house; host or cells: Saccharomyces cerevisiae mutant strain Δypc1Δydc1 (microsomes, galactose-induced, pYES2-FLAG-maCER1)
T1 sequence (Q8R4X1 1-273): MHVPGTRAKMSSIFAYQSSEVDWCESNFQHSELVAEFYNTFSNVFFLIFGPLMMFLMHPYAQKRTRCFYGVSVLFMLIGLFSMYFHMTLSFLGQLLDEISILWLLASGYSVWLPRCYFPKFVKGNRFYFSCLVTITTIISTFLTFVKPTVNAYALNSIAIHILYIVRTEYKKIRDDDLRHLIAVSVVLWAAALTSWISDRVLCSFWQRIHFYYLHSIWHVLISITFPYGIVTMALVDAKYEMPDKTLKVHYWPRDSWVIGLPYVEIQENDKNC
Assay: Ceramidase activity assay with maCER1-containing yeast microsomes (release of NBD-fatty acid from D-e-C12-NBD-ceramide)
Assay type: biochemical
Settings: FIG. 4C; for effect of sphingoid base on ceramidase activity (in words): same concentration range as sphingosine
Protocol: The microsomes, as in FIGS. 2A-D were assayed for ceramidase activity using D-e-C12-NBD-ceramide (200 μM) as substrate at different pH in the presence of 0.2% NP-40 and 5 mM Ca^2+ (FIG. 4A), at pH 8.5 in the presence of different cations (FIG. 4B), or different sphingoid bases (FIG. 4C). Results are the mean±SD of three independent experiments performed in duplicate.
maCER1 was expressed in yeast cells as described (Reference 21). Briefly, the expression construct pYES2-FLAG-maCER1 or the empty vector pYES2-FLAG was transformed into the yeast strain Δypc1Δydc1. Expression of the FLAG-tagged maCER1 was induced by 2% galactose.
Ceramidase activity was determined by the release of NBD-fatty acid from fluorescent substrates, NBD-C12-ceramide, dihydroceramide, or phytoceramide as described (Reference 21). Briefly, 20 μl of microsomes (containing 10-20 μg proteins) in buffer B (25 mM Tris-HCl, pH 8.0, 5 mM CaCl2) was mixed with 20 μl of 200 μM NBD-ceramide in buffer B with 0.4% NP-40 in a 1.5 ml microfuge tube. After incubation at 37° C. for 30-60 min, the reactions were stopped by boiling for 5 min, and dried under a SpeedVec. The released NBD-fatty acid was separated from NBD-ceramide by TLC in a solvent of chloroform:methanol: ammonium hydroxide (90:30:0.5) and quantified by PhosphorImager set at the fluorescent mode. To determine the pH optimum of maCER1, the maCER1 microsomes were resuspended in buffer C (1 mM Tris-HCl, pH 7.4, containing 5 mM CaCl2). To determine a cation effect, the maCER1 microsomes were resuspended in buffer A without CaCl2.

| pIC50 (maCER1 microsomes, substrate D-e-C12-NBD-ceramide (200 μM), read-out: IC50 for the inhibition of ceramidase activity) | Structure (SMILES) | effect of sphingoid base on ceramidase activity (in words) |
| --- | --- | --- |
| – | CCCCCCCCCCCCCCC[C@@H](O)[C@@H](N)CO [dihydrosphingosine, D-erythro-dihydrosphingosine] | neither phytosphingosine nor dihydrosphingosine in the same concentration range were inhibitory |
| – | CCCCCCCCCCCCCC[C@@H](O)[C@@H](O)[C@@H](N)CO [phytosphingosine, D-ribo-phytosphingosine] | neither phytosphingosine nor dihydrosphingosine in the same concentration range were inhibitory |
| ~4.10 | CCCCCCCCCCCCC/C=C/[C@@H](O)[C@@H](N)CO [sphingosine, D-erythro-sphingosine] | – |
